Assay results published in patent US20120316241A1, “REMEDY FOR CARTILAGE-RELATED DISEASES” (ONO PHARMACEUTICAL CO., LTD., priority 2003, published 2012).

Key:
[1] = system: human primary-cultured chondrocyte; assay: cell growth activity, BrdU incorporation assay; type: cell-based; settings: 1 μM overnight, then 8 hours with BrdU; normal cartilage and RA articular cartilage derived cells
Description: Human primary-cultured chondrocytes were isolated from knee articular cartilages of three patients who underwent above-knee amputation due to femur osteosarcoma. In addition, other human primary-cultured chondrocytes were obtained from rheumatic arthritis patients who underwent artificial hip joint replacement. Isolation operation of these cells was also carried out by the method described in the above.
The cell growth activity was measured by a BrdU incorporation assay using BrU labeling, detection kit (mfd. by Boehringer Mannheim GmbH).
Culturing of each chondrocyte was started at a cell density of 2×10^3 cells/96 well culture dish, and after adhesion of the cells, the selective EP agonist described in Example 2 (1 μM) was added thereto to start the culturing at 37° C. overnight. Subsequently, the culturing was continued for 8 hours together with BrdU (final concentration 110 μM), and the labeled nucleus was detected by the method of the instructions attached to the kit.

chondrocyte strain = assay: gene expression profile by cDNA microarray, reconfirmed by RT-PCR; type: cell-based, mouse; settings: 1 μM, 72 hours, medium with 5 μM indometacin
Description: Culturing of each chondrocyte was started at a cell density of 3×10^5 cells/100 mm culture dish, and 2 days and 21 days thereafter, respective total RNA samples were prepared using Trizol Reagent (mfd. by Life Technologies) in accordance with the instructions attached thereto. The RT reaction was carried out in accordance with the instructions attached to RT-PCR kit (mfd. by Life Technologies) using 1 μg of the thus prepared total RNA. The PCR reaction was carried out in 25 μl of a reaction liquid (20 μmol sense primer, 20 μmol antisense primer, 25 mM MgCl2, 0.2 mM dNTP, 1 unit γTaq polymerase (mfd. by TOYOBO., LTD.)) containing 1 μl of the RT reaction liquid. The PCR reaction (in the reaction, starting reaction was carried out at 94° C. for 5 minutes, and then the following reaction (denaturation reaction at 94° C. for 1 minute, annealing reaction at 72° C. for 1 minute and elongation reaction at 72° C. for 7 minutes) was carried out 35 times) was carried out using Gene Amp 9700 (mfd. by PE Applied Biosystem). Sequences of the primers used in the above RT-PCR are shown in the following.
Gene expression profile of chondrocytes was analyzed by a custom-made cDNA microarray system. This system was prepared by spotting 78 species of bone- and cartilage-related mouse genes and 900 species of mouse genes (InteliGene CHIP ver. 1) (mfd. by Takara Bio INC.) on a glass slide.
A chondrocyte was cultured for 72 hours in DMEM/F12 medium (contains 5 μM indometacin) in the presence or absence of each of the selective EP agonists shown in Example 2 (1 μM), and respective total RNA samples were extracted. A fluorescent cDNA probe was synthesized using 20 μg of each of the total RNA samples as the template, and using 400 U of M-MLV reverse transcriptase and Cy3 or Cy5-dUTP (Amersham Biosciences).
Each cDNA probe dissolved in a reaction buffer (6×SSC/0.2% SDS, 5×Denhardt's solution, 0.1 mg/ml denatured salmon sperm DNA) was allowed to hybridize with the spots on the glass slide at 65° C. overnight. The slide was washed with a washing liquid (2×SSC/0.2% SDS) twice at 55° C. for 5 minutes and then once at 65° C. for 5 minutes, and finally washed with 0.05×SSC solution at room temperature for 1 minute. The hybridization signal was visualized by Affymetrix 418 Array Scanner (mfd. by Affymetrix), and analyzed by ImaGene software (mfd. by BioDiscovery). Regarding the expressed genes in which changes were confirmed, reconfirmation was carried out by the RT-PCR method.

MMA2 chondrocyte strain = assay: intracellular cAMP concentration (cAMP assay kit); type: cell-based, mouse; settings: 12 hours with agonist
Description: Cartilage tissues of a femur and the shinbone collected from a p53 defective mouse of 4 weeks of age (Tukada, T., Oncogene, 1992, vol. 8, pp. 3313-3322) were cut into pieces, treated with 0.1% collagenase and then cultured (culture conditions; 5% CO2, 37° C., under humidification, hereinafter, this was carried out under the same conditions) using DMEM/Ham's F12 (1:1) medium (contains 10% fetal bovine serum (FBS) and antibiotics (to be referred to as DMEM/Ham's F12 medium hereinafter)). By carrying out dilution sub-culturing from the cell group under a 80 to 90% confluent state, a chondrocyte strain MMA2 recognized by an international deposition number FERM BP-10029 was isolated. […]
Culturing of each chondrocyte was started at a cell density of 1×10^4 cells/24 well culture dish, and 2 hours thereafter, each of the selective EP agonists shown in Example 2 was added thereto to continue the culturing for additional 12 hours. The intracellular cAMP concentration was measured using a cAMP assay kit (Cayman Chemical Company) and in accordance with the instructions attached to the kit, using, as a sample, lysed supernatant of the cell prepared by lysing the same with a cell lysis liquid (0.1 mM Tris/HCl buffer, pH 7.2).

[2] = system: femoral condyle articular cartilage; assay: cartilage deficiency model, femoral condyle articular cartilage organ culture; design: species or system rat
Description: (§1) The cartilage deficiency model was prepared from a femoral condyle articular cartilage collected from a rat of 5 weeks of age, by cutting the cartilage layer alone such that damage is not given to the subchondral bone. The femur was soaked in the DMEM/Ham's F12 medium (contains 5 μM indometacin) and cultured for 21 days in the presence (treated group) or absence (control group) of the selective EP agonist described in Example 2 (10 μM or 1 μM). Area of the newly formed cartilage tissue was measured using Image-Pro Plus software (mfd. by Planetron) and calculated as an area ratio with the untreated lateral joint face.
(§2) The formalin-fixed sections were prepared on the 0th day, 7th day, 14th day and 21st day starting from the commencement of tissue culturing described in Example 8. Each section was decalcified with EDTA (10% w/v) for 7 days and then sliced into a section of 4 μm in thickness. The hematoxylin-eosin staining and alcian blue staining were carried out by the aforementioned method.

[3] = system: rat femur head articular cartilage; assay: PCNA immunohistological staining of organ-cultured articular cartilage; settings: 1 μM, after 7 days of organ culture
Description: as §1, §2
Regarding the PCNA immuno histological staining, the prepared slide was treated with 3% hydrogen peroxide and then subjected to a blocking treatment using a blocking solution (mfd. by Dako Cytomation). […] After washing, the reaction with a substrate, 3,3′-diaminobenzidine tetrahydrochloride (mfd. by Dako Cytomation), was detected. […]

Compound | DNA synthesis (BrdU incorporation) [1] | expression of fibronectin, integrin, cyclin D1, MAZ, AP2α and 14-3-3γ genes (chondrocyte strain) | expression of osteopontin and MGP genes (chondrocyte strain) | intracellular cAMP (MMA2 chondrocyte strain) | ratio of the regenerated tissue (area ratio with the untreated lateral joint face) ([2]; 1 μM or 10 μM, cultured for 21 days) | tissue regeneration image (hematoxylin-eosin, alcian blue staining) ([2]; treated group against control group, 21 days) | PCNA staining affinity [3]
C=CCC1(C(O)C/C=C/[C@@H]2[C@@H](C/C=C\CCCC(=O)O)[C@H](Cl)C[C@H]2O)CCC1 (stereo partly drawn) [EP2 agonist, (5Z,9β,11α,13E)-17,17-propano-11,16-dihydroxy-9-chloroprostar-5,13,19-trienoic acid] | DNA synthesis accelerating effect | stimulated | reduced | increased concentration-dependently | increased periodically and concentration-dependently | a regeneration image having a staining affinity of similar to that of a remaining existing cartilage (right side) was observed | distinctively increased
CCCCC[C@@H](/C=C/[C@H]1[C@H](OC)CC(=O)[C@@H]1C/C=C\CCCC(=O)O)OC [EP3 agonist, 11α,15α-dimethoxy-9-oxoprosta-5Z,13E-dienoic acid] | – | stimulated | reduced | – | – | – | distinctively increased
